Results on 14 compounds are retold here after patent US9974305B2, “Fungicidal or bactericidal composition, and method for controlling diseases” (NISSAN CHEMICAL INDUSTRIES, LTD., priority 2014, dated 2018).

Common to all, as to type: in vivo
Assay [1] has as its system cucumber gray mold fungus (Botrytis cinerea). Nature of the assay: Preventive test against gray mold on cucumber cotyledon leaves, spray treatment, preventive value and Colby expected value (Test Examples 1-4). To be noted: single compound; for pest or weed control at 10 ppm / pest or weed control at 50 ppm / pest or weed control at 20 ppm: Botrytis cinerea, 72 h; for pest or weed control at 50 ppm: 50 ppm spray; for pest or weed control at 20 ppm: 20 ppm spray. How it is done: Using the following compound listed in Table 2 (the active ingredient A) and the compound listed in Table 5 through Table 15 (active ingredient B), an agent was prepared in accordance with the above Formulation Example. This agent was diluted with water to a predetermined concentration to obtain a test solution. Then, cucumber (variety: Sagami-hanjiro) was planted in a plastic pot of 90 cm^3, and in the cotyledon stage, 5 ml of the obtained test solution, was sprayed by a spray gun and air-dried. Thereafter, the treated leaf was cut off and placed in a plastic container which filled approximately 0.5 cm in depth water. A suspension of conidia of cucumber gray mold fungus (Botrytis cinerea) and a dissolved PDA culture medium were mixed at a ratio of 1:1 (mass ratio), and the mixture was dropped to inoculate the treated leaf with 30 μl. After the inoculation, the plastic container was sealed and left at 20° C. for 3 days, the ratio of the formed lesion occupying the inoculated leaf was measured, and the preventive value was calculated in accordance with the following calculation formula. Preventive value=[1−(treated plot lesion area ratio/untreated plot lesion area ratio)]×100
Further, from the preventive value at each agent concentration, synergy was calculated by using the Colby method (Colby S. R. 1976, Weeds 15, 20-22). The calculation method is as follows. E=X+Y−XY/100
X: preventive value of A agent at x concentration
Y: preventive value of B agent at y concentration
E: theoretical value expected by treatment of the mixture of A agent and B agent.
The obtained result is analyzed to be synergy if the observed value is larger than the expected value, to be antagonism if the expected value is larger than the observed value, and to be an additive effect if the observed value and the expected value are the same.
Using the following compound listed in Table 2 (active ingredient A) and the following compound listed in Table 5 through Table 15 (active ingredient B) as active ingredients, a preventive test against gray mold was conducted in accordance with the method described in Test Example 1.
Using the following compound listed in Table 2 (active ingredient A) and the following compound listed in Table 5 or Table 6 (active ingredient B) as active ingredients, a preventive test against gray mold was conducted in accordance with the method described in Test Example 1.
Using the following compound listed in Table 2 (active ingredient A) and the following compound listed in Table 6 through Table 16 (active ingredient B) as active ingredients, a preventive test against gray mold was conducted in accordance with the method described in Test Example 1.

In assay [2] the test system is wheat glume blotch (Leptosphaeria nodorum). Nature of the assay: Efficacy test on wheat glume blotch, spray treatment and prevention test (Test Example 8). To be noted: for pest or weed control at 5 ppm: single compound 5 ppm. How it is done:
An agent comprising the following compound listed in Table 2 (active ingredient A) and the following compound listed in Table 6, Table 11 or Table 15 (active ingredient B) as active ingredients, was prepared in accordance with the above Formulation Example. This agent was diluted with water to a predetermined concentration to obtain a test solution. Then, to seedlings of wheat (variety: Haruyutaka) at the 1-leaf stage, seeded in a pot with a diameter of 7 cm, with 5 seeds per pot, and grown for 7 days, the test solution was applied by a spray gun in an amount of 5 ml per pot, for treatment. One day after the treatment, a spore suspension (1×100,000 cfu/ml) of wheat glume blotch (Leptosphaeria nodorum) was spray-inoculated, and the pot was placed in a moist chamber set in temperature of 20° C. and humidity more than 95% RH for 48 hours. After placing the pot in a glass greenhouse for 7 days, the ratio of the formed lesion area occupying the inoculated leaves was measured, and the preventive value was calculated in accordance with the following formula. Preventive value=[1−(treated plot lesion area ratio/untreated plot lesion area ratio)]×100
(§1) Further, from the preventive value for each agent concentration, synergy was calculated by using the Colby method (Colby S. R. 1976, Weeds 15, 20-22).

Assay [3] concerns cucumber downy mildew (Pseudoperenospora cubensis). Nature of the assay: Efficacy test on cucumber downy mildew, spray treatment and prevention test (Test Example 7). Conditions: single compound 0.5 ppm; lesion area ratio. How it is done: An agent comprising the following compound listed in Table 2 (active ingredient A) and the compound listed in Table 6 (C40: active ingredient B) as active ingredients, was prepared in accordance with the above Formulation Example. This agent was diluted with water to a predetermined concentration to obtain a test solution. Then, to seedlings of cucumber (variety: Sagami-hanjiro) at 1.5-leaf stage grown in a pot with a diameter of 7 cm, the test solution was applied by a spray gun in an amount of 10 ml per pot, for treatment. One day after the treatment, a spore suspension (2×100,000 cfu/ml) of cucumber downy mildew (Pseudoperenospora cubensis), was spray-inoculated, and the pot was placed in a moist chamber set in temperature of 20° C. and humidity more than 95% RH for 24 hours. After placing the pot in a glass greenhouse for 6 days, the ratio of the formed lesion area occupying the inoculated leaves was measured, and the preventive value was calculated in accordance with the following formula. Preventive value=[1−(treated plot lesion area ratio/untreated plot lesion area ratio)]×100
as §1

The subject of assay [4] is rice sheath blight fungus (Rhizoctonia solani). Nature of the assay: Efficacy test on rice sheath blight, spray treatment and prevention test (Test Examples 5-6). To be noted: single compound 5 ppm, lesion height. How it is done:
An agent comprising the following compound listed in Table 2 (active ingredient A) and the compound listed in Table 6 (C17: active ingredient B) as active ingredients, was prepared in accordance with the above Formulation Example. The agent was diluted with water to a predetermined concentration to obtain a test solution. Then, in a plastic pot of 90 cm^3, rice (Nipponbare) was seeded by 5 grains in one place, and to the grown seedlings in 4 seedling phase, the test solution was applied by a spray gun in an amount of 5 ml per pot, for treatment.
One day after the treatment, 1 g of mycelium flora of rice sheath blight fungus (Rhizoctonia solani) cultured in bran medium, was put by […] to a close-to-ground part of seedlings, and the pot was placed in a moist chamber set in temperature of 25° C. and humidity more than 95% RH for eight days. The height of the lesions which appeared in the highest position from the close-to-ground part (lesion height) was investigated, and the preventive value was calculated in accordance with the following formula. Preventive value=[1−(treated plot lesion height/untreated plot lesion height)]×100
as §1
Using the following compound listed in Table 2 (active ingredient A) and the compound listed in Table 6 (C17: active ingredient B) as active ingredients, a preventive test on rice sheath blight was conducted in accordance with the above Test Example 5.

In assay [5] the test system is wheat glume blotch (Leptosphaeria nodorum). Nature of the assay: Efficacy test on wheat glume blotch, seed treatment (Test Example 9). Conditions: single compound. As for the experimental part: An agent comprising the following compound listed in Table 2 (active ingredient A) and the compound listed in Table 11 (H35: active ingredient B) as active ingredients, was prepared in accordance with the above Formulation Example. This agent was diluted with water to a predetermined concentration to obtain a test solution. A predetermined amount of the test solution was put in a glass bottle of 5 ml, and 0.5 g (approximately 15 grains) of wheat seeds (variety: Haruyutaka) were added, stirred and air-dried. In each pot with a diameter of 7 cm having soil put therein, 3 grains were seeded and grown for 14 days. To seedlings of the wheat (variety: Haruyutaka) grown to a 1-leaf stage, a spore suspension (100,000 cfu/ml) of wheat glume blotch (Leptosphaeria nodorum) was spray-inoculated, and the pot was placed in a moist chamber set in temperature of 20° C. and humidity more than 95% RH for 48 hours. After placing the pot for 7 days in a glass greenhouse, the ratio of the formed lesion area occupying the inoculated leaves was measured, and the preventive value was calculated in accordance with the following formula. Preventive value=[1−(treated plot lesion area ratio/untreated plot lesion area ratio)]×100
(§2) Further, from the preventive value at each agent concentration, synergy was calculated by using the Colby method (Colby S. R. 1976, Weeds 15, 20-22).

Assay [6] has as its system wheat powdery mildew (Blumeria graminis). Nature of the assay: Efficacy test on wheat powdery mildew, seed treatment (Test Example 10). Conditions: wheat (Norin 61). As for the experimental part: An agent comprising the following compound listed in Table 2 (active ingredient A) and the compound listed in Table 11 (H35: active ingredient B) as active ingredients, was prepared in accordance with the above Formulation Example. This agent was diluted with water to a predetermined concentration to obtain a test solution. A predetermined amount of test solution was put in a glass bottle of 5 ml, and 0.5 g (approximately 15 grains) of wheat seeds (variety: Norin 61) were added, stirred and air-dried. In each pot with a diameter of 7 cm and having soil put therein, 3 grains were seeded and grown for 14 days. To the wheat seedlings grown to the 1-leaf stage, a spore suspension (100,000 cfu/ml) of wheat powdery mildew (Blumeria graminis) was spray-inoculated. After placing the pot in a glass greenhouse for 10 days, the ratio of the formed lesion area occupying the inoculated leaves was measured, and the preventive value was calculated in accordance with the following formula. Preventive value=[1−(treated plot lesion area ratio/untreated plot lesion area ratio)]×100
as §2

The mark [7] stands for this setting: Test Example 4, 10 ppm spray, read-out: Preventive value.
The mark [8] stands for this setting: Parastagonospora nodorum, single compound 50 ppm, spray, lesion area ratio, read-out: Preventive value.
The mark [9] stands for this setting: Test Example 1, read-out: Preventive value.
Where [10] appears, read: Test Example 2, read-out: Preventive value.
Setting [11] is: Parastagonospora nodorum, spray, lesion area ratio, read-out: Preventive value.

Each structure is given as a SMILES string. Like-named read-outs stand apart in the source and are kept apart here.

Turning to `CNC(=O)C(OC)c1ccccc1COc1cc(C)ccc1C` (centres unmarked) [C29, mandestrobin, reference compound], the Preventive value in assay [1] (Test Example 4, 10 ppm spray) stood at 45; in assay [2] (single compound 10 ppm, spray, lesion area ratio) it was 50.
`CO/C=C(/C(=O)OC)c1ccccc1COc1cccc(C(F)(F)F)n1` [C32, picoxystrobin, reference compound]: the Preventive value in assay [1] (Test Example 4, 10 ppm spray) is reported as 30; in assay [2] (single compound 1 ppm, spray, lesion area ratio) it was 50.
For `COC(=O)N(OC)c1ccccc1COc1ccn(-c2ccc(Cl)cc2)n1` [C33, pyraclostrobin, reference compound], in assay [1] (setting [7]), the pest or weed control at 10 ppm came to 50%. Further, the pest or weed control at 1 ppm in assay [2] (Parastagonospora nodorum, single compound 1 ppm, spray, lesion area ratio, read-out: Preventive value) was 65%.
Turning to `COC(=O)NCc1cc(/C(C)=N/OCc2cccc(C)n2)ccc1Cl` [C36, pyribencarb-methyl, reference compound], the Preventive value in assay [1] (Test Example 4, 10 ppm spray) is listed as 60; in assay [2] (single compound 25 ppm, spray, lesion area ratio) it was 45.
Take `CON=C(C(=O)OC)c1ccccc1CON=C(C)c1cccc(C(F)(F)F)c1` [C39, trifloxystrobin, reference compound]: the pest or weed control at 10 ppm in assay [1] (setting [7]) amounted to 40%. Further, the pest or weed control at 50 ppm in assay [2] (setting [8]) came to 70%.
As to `Cc1c(Br)c2ccc(F)cc2n1S(=O)(=O)c1ncn(S(=O)(=O)N(C)C)n1` [C40, amisulbrom], the Preventive value is on record as 0 in assay [1] (Test Example 1, 100 ppm spray); 0 in assay [1] (Test Example 2, 100 ppm spray); 75 in assay [3].
With `Cc1nc(C(F)(F)F)c(C(=O)Nc2c(Br)cc(OC(F)(F)F)cc2Br)s1` [Compound No. C17, thifluzamide, reference compound], the figures for the pest or weed control at 50 ppm in assay [1] (setting [9]) and in assay [1] (setting [10]) were 20% and 25%, respectively. Besides, the Preventive value was determined as 69 in assay [4] (Test Example 5) and 75 in assay [4] (Test Example 6).
In the case of `OC(Cc1ccccc1Cl)(Cn1nc[nH]c1=S)C1(Cl)CC1` (centres unmarked) [Compound No. H31, prothioconazole, reference compound], in assay [1] (setting [7]), the pest or weed control at 10 ppm turned out to be 50%. Also, in assay [2] (setting [8]), the pest or weed control at 50 ppm turned out to be 30%.
As for `CC(C)(C)C(O)(CCc1ccc(Cl)cc1)Cn1cncn1` (centres unmarked) [Compound No. H35, tebuconazole, reference compound], the Preventive value came out at 60 in assay [5] (processing amount 1 mg/1 g seed), 75 in assay [5] (processing amount 5 mg/1 g seed), 80 in assay [6] (processing amount 0.025 mg/1 g seed) and 95 in assay [6] (processing amount 0.1 mg/1 g seed). For the same compound, the pest or weed control at 20 ppm in assay [1] (Test Example 1) came out at 45%; in assay [1] (Test Example 2), 50%. In addition, the pest or weed control at 5 ppm in assay [2] (setting [11]) amounted to 45%.
Take `N#CC(CCc1ccc(Cl)cc1)(Cn1cncn1)c1ccccc1` (centres unmarked) [H13, fenbuconazole]: the results for the pest or weed control at 50 ppm in assay [1] (setting [9]) and in assay [1] (setting [10]) were 63% and 60%, respectively. In addition, in assay [2] (Parastagonospora nodorum, single compound 25 ppm, spray, lesion area ratio, read-out: Preventive value), the pest or weed control at 25 ppm was 50%.
Turning to `CC1(C)CCC(Cc2ccc(Cl)cc2)C1(O)Cn1cncn1` (centres unmarked) [H23, metconazole, reference compound], in assay [1] (setting [7]), the pest or weed control at 10 ppm is 60%. Moreover, the pest or weed control at 5 ppm in assay [2] (setting [11]) amounted to 45%.
With `CCCCC(C#N)(Cn1cncn1)c1ccc(Cl)cc1` (centres unmarked) [H24, myclobutanil, reference compound], the pest or weed control at 10 ppm in assay [1] (setting [7]) is 60%. The pest or weed control at 100 ppm in assay [2] (Parastagonospora nodorum, single compound 100 ppm, spray, lesion area ratio, read-out: Preventive value) was 70%.
In the case of `CCCN(CCOc1c(Cl)cc(Cl)cc1Cl)C(=O)n1ccnc1` [H29, prochloraz, reference compound], in assay [1] (read-out: Preventive value, Test Example 4, 10 ppm spray), the pest or weed control at 10 ppm was found to be 50%. Moreover, in assay [2] (Parastagonospora nodorum, read-out: Preventive value), the pest or weed control at 50 ppm worked out at 45%.
For `N#Cc1c(Cl)c(Cl)c(Cl)c(C#N)c1Cl` [L25, chlorothalonil], the figures for the pest or weed control at 50 ppm in assay [1] (setting [9]), in assay [1] (setting [10]) and in assay [2] (setting [8]) were 50%, 55% and 50%, respectively.
